Patent publication US20200002303A1, “C-GLYCOSIDE COMPOUNDS USEFUL FOR TREATING DISEASE” (Fimbrion Therapeutics, Inc., priority 2016, published 2020)

Key:
[1] = test system: UTI89 bacteria; test: Biofilm inhibition assay with UTI89 bacteria; format: cell-based; settings: read-out: Biofilm prevention IC50
Method: The biofilm inhibition assay was performed with UTI89 bacteria as previously described (L. Cegelski, J. S. Pinkner, N. D. Hammer, C. K. Cusumano, C. S. Hung, E. Chorell, V. Aberg, J. N. Walker, P. C. Seed, F. Almqvist, M. R. Chapman, S. J. Hultgren Nature Chem. Biol. 2009, 5, 913-919). Compounds not listed were not tested.

[2] = molecular target: T1, FimHL (Escherichia coli, UniProt P08191); test: Differential scanning fluorimetry (DSF) with purified FimHL; format: binding; settings: FimHL 10 μM with mannoside 100 μM, SYPRO Orange, HEPES pH 7.5; Tm from Boltzmann fit
T1 construct: Purified FimHL (10 μM) in the absence or presence of mannoside (100 μM)
Method: Purified FimHL (10 μM) in the absence or presence of mannoside (100 μM) was combined with 5×SYPRO Orange in a 50 μl reaction mixture buffered in 20 mM HEPES pH 7.5, 150 mM NaCl (HBS) and 0.4% DMSO. Binding equilibria were established by allowing the reaction mixtures to incubate at 23° C. for 30 min. These reaction mixtures were then placed in 96-well clear-bottom PCR plates and subjected to a melt curve from 20-90° C. in 0.5° C. increments of 15 seconds, each followed by a fluorescence read of the “HEX” channel in a Bio-Rad CFX96 thermocycler (Bio-Rad, Hercules, Calif.). Melt curves were fitted to the Boltzmann equation (y=A2+(A1−A2)/(1+exp((x−xo)/dx)) where xo is the Tm) to determine the melting temperature (Tm) using GraphPad Prism 6 (San Diego Calif.). Melting temperatures are represented as the mean and standard error of two biological replicates, each of which consisted of three technical replicates. Compounds not listed were not tested.

[3] = molecular target: T2, FimH (Escherichia coli, UniProt Q1R2J4); format: cell-based; settings: concentration reducing bacterial agglutination of guinea pig red blood cells by greater than 90%; UTI89 bacteria
T2 construct: performed with UTI89 bacteria and guinea pig red blood cells; endogenous in cells; host or cells: UTI89 bacteria (whole cells, type 1 piliated)
Method: The hemagglutination inhibition (HAI) assay was performed with UTI89 bacteria and guinea pig red blood cells, as previously described (S. J. Hultgren, W. R. Schwan, A. J. Schaeffer, J. L. Duncan Infect. Immun. 1986, 54, 613-620).

Cc1cc(-c2ccc3ccnc(N)c3c2)ccc1[C@@H](O)[C@H]1O[C@H](CO)[C@@H](O)[C@H](O)[C@@H]1O [Example 3, (2R,3S,4S,5S,6R)-2-((R)-(4-(1-aminoisoquinolin-7-yl)-2-methylphenyl)(hydroxy)methyl)-6-(hydroxymethyl)tetrahydro-2H-pyran-3,4,5-triol]
IC50 [1]: 40 nM | DSF Melting Temp [2]: 77.7 °C | HAI titer EC>90 [3]: 0.006 µM

Cc1cc(-c2ccc3c(c2)C(=O)NCC3)ccc1[C@@H](O)[C@H]1O[C@H](CO)[C@@H](O)[C@H](O)[C@@H]1O [Example 4, 7-(4-((R)-hydroxy((2R,3S,4S,5S,6R)-3,4,5-trihydroxy-6-(hydroxymethyl)tetrahydro-2H-pyran-2-yl)methyl)-3-methylphenyl)-3,4-dihydroisoquinolin-1 (2H)-one]
IC50 [1]: 40 nM | DSF Melting Temp [2]: 76.06 °C | HAI titer EC>90 [3]: 0.008 µM
